Where “and” joins values, the source holds several entries; their conditions need not be identical. Equal values may be shown once. Read-outs that look alike come from different tables or passages of the source. Where a SMILES comes first, the peptide text is derived from it. [ ]: non-standard residue; d: D form. The star is where a group is joined. X2 = CO[C@@H]1NC(=O)CC[C@@H]1N*; X3 = O=C1CC[C@H](N*)[C@@H](O)N1; X1 = O=C1CC[C@H](N*)[C@H](O)N1; Valol = CC(C)[C@@H](CO)N*; Aib = CC(C)(N)C(=O)O
What was measured:
[1] = tested on: SK-OV-3 (ovarian cancer) cells; assay: MTT cell viability assay, SK-OV-3 cells; settings: for IC50: read-out: IC50 against SK-OV-3 (Ovarian Cancer)
Experimental: (§1) HCT-8 (colorectal carcinoma), and SK-OV-3 (ovarian cancer) cell lines were obtained from the American Type Culture Collection (ATCC; Manassas, VA, USA). The cells were cultured in RPMI-1640 medium (Cytiva, Marlborough, MA, USA) supplemented with 10% fetal bovine serum (FBS), 100 U/mL penicillin, and streptomycin, and incubated in a humidified atmosphere with 5% CO2 at 37 °C [23].
(§2) Cell viability was determined using the 3-(4,5-dimethylthiazol-2-yl)-2,5-diphenyltetrazolium bromide (MTT) colorimetric assay (Sigma Chemical Co., St. Louis, MO). Cells were seeded in 96-well plates and incubated at 37 °C for 24 h. Subsequently, cells were treated with isolated compounds at concentrations of 2, 20, and 100 μM for an additional 24 h. After treatment, 25 μL of MTT solution (5 mg/mL; Thermo Fisher Scientific, Waltham, MA, USA) was added to each well and incubated for 3 h. The resulting formazan crystals were dissolved in 100 μL of dimethyl sulfoxide, and the absorbance was measured at 550 nm using an ELx808 microplate reader (BioTek Instruments Inc., Winooski, VT, USA).

[2] = tested on: HCT-8 (colon cancer) cells; assay: MTT cell viability assay, HCT-8 cells; settings: for IC50: read-out: IC50 against HCT-8 (Colon Cancer)
Experimental: as §1, §2

[3] = MTT colorimetric assay, 96-well plates, treated at 2, 20, and 100 μM for 24 h, absorbance at 550 nm, mean ± standard deviation from triplicate experiments

Row | SMILES | IC50 ([1]; Homo sapiens, SK-OV-3, 24 h) | IC50 ([2]; Homo sapiens, HCT-8, 24 h) | cytotoxicity against SK-OV-3 cells, in words [1] | IC50 [1, 3] | cytotoxicity against HCT-8 cells, in words [2] | IC50 [2, 3]
1 | COc1cc([C@@H]2c3cc4c(cc3[C@@H](O[C@@H]3O[C@@H]5CO[C@@H](C)O[C@H]5[C@H](O)[C@H]3O)[C@H]3COC(=O)[C@H]23)OCO4)cc(OC)c1O [Etoposide, reference compound] | 37.3 ± 1.8 µM | 33.7 ± 1.5 µM | – | – | – | –
2 | CC[C@H](C)[C@H](NC(=O)C(C)(C)NC(C)=O)C(=O)NC(C)(C)C(=O)N[C@@H](Cc1ccc(O)cc1)C(=O)NC(C)(C)C(=O)N[C@@H](CC(C)C)C(=O)NC(C)(C)C(=O)N[C@@H](C)C(=O)NC(C)(C)C(=O)NC(C)(C)C=O [Compound 11, bukhansantaibal A] (Ac-[Aib]I[Aib]Y[Aib]L[Aib]A[Aib][Aib]-aldehyde) | – | – | inactivity | > 50 µM | inactivity | > 50 µM
3 | CC[C@H](C)[C@H](NC(=O)C(C)(C)NC(=O)[C@@H](NC(=O)[C@@H]1CCCN1C(=O)C(C)(C)NC(=O)[C@H](CC(C)C)NC(=O)[C@H](CO)NC(=O)C(C)(C)NC(=O)C(C)(C)NC(=O)C(C)(C)NC(=O)[C@H](CCC(N)=O)NC(=O)C(C)(C)NC(=O)C(C)(C)NC(=O)[C@H](C)NC(=O)CNC(=O)[C@H](Cc1c[nH]c2ccccc12)NC(C)=O)C(C)C)C(=O)N[C@H]1CCC(=O)N[C@@H]1O [Compound 8, bukhansantaibol H] (Ac-WGA[Aib][Aib]Q[Aib][Aib][Aib]SL[Aib]PV[Aib]I-X3) | – | – | – | > 50 µM | – | > 50 µM
4 | CC[C@H](C)[C@H](NC(=O)C(C)(C)NC(C)=O)C(=O)NC(C)(C)C(=O)N[C@@H](Cc1ccc(O)cc1)C(=O)NC(C)(C)C(=O)N[C@H](C(=O)NC(C)(C)C(=O)N[C@@H](C)C(=O)NC(C)(C)C(=O)NC(C)(C)C=O)[C@@H](C)CC [Compound 12, bukhansantaibal B] (Ac-[Aib]I[Aib]Y[Aib]I[Aib]A[Aib][Aib]-aldehyde) | – | – | inactivity | > 50 µM | inactivity | > 50 µM
5 | CC[C@H](C)[C@H](NC(=O)C(C)(C)NC(=O)[C@@H](NC(=O)[C@@H]1CCCN1C(=O)C(C)(C)NC(=O)[C@H](CC(C)C)NC(=O)[C@H](CO)NC(=O)C(C)(C)NC(=O)C(C)(C)NC(=O)C(C)(C)NC(=O)[C@H](CCC(N)=O)NC(=O)C(C)(C)NC(=O)C(C)(C)NC(=O)[C@H](C)NC(=O)CNC(=O)[C@H](Cc1ccccc1)NC(C)=O)C(C)C)C(=O)N[C@@H](CCC(=O)O)C(=O)N[C@@H](CCC(N)=O)C(=O)N[C@H](CO)C(C)C [Compound 6, bukhansantaibol F] (Ac-FGA[Aib][Aib]Q[Aib][Aib][Aib]SL[Aib]PV[Aib]IEQ-Valol) | – | – | – | > 50 µM | – | > 50 µM
6 | CC[C@H](C)[C@H](NC(=O)C(C)(C)NC(=O)[C@@H](NC(=O)[C@@H]1CCCN1C(=O)C(C)(C)NC(=O)[C@H](CC(C)C)NC(=O)[C@H](C)NC(=O)C(C)(C)NC(=O)C(C)(C)NC(=O)C(C)(C)NC(=O)[C@H](CCC(N)=O)NC(=O)C(C)(C)NC(=O)C(C)(C)NC(=O)[C@H](C)NC(=O)CNC(=O)[C@H](Cc1c[nH]c2ccccc12)NC(C)=O)C(C)C)C(=O)N[C@@H](CCC(N)=O)C(=O)N[C@@H](CCC(N)=O)C(=O)N[C@H](CO)C(C)C [Compound 4, bukhansantaibol D] (Ac-WGA[Aib][Aib]Q[Aib][Aib][Aib]AL[Aib]PV[Aib]IQQ-Valol) | – | – | – | < 10 µM and 5.7 µM | – | < 10 µM and 7.7 µM
7 | CC[C@H](C)[C@H](NC(=O)C(C)(C)NC(=O)[C@@H](NC(=O)[C@@H]1CCCN1C(=O)C(C)(C)NC(=O)[C@H](CC(C)C)NC(=O)[C@H](CO)NC(=O)C(C)(C)NC(=O)C(C)(C)NC(=O)C(C)(C)NC(=O)[C@H](CCC(N)=O)NC(=O)C(C)(C)NC(=O)C(C)(C)NC(=O)[C@H](C)NC(=O)CNC(=O)[C@H](Cc1ccccc1)NC(C)=O)C(C)C)C(=O)N[C@@H](CCC(N)=O)C(=O)N[C@@H](CCC(N)=O)C(=O)N[C@H](CO)C(C)C [Compound 3, bukhansantaibol C] (Ac-FGA[Aib][Aib]Q[Aib][Aib][Aib]SL[Aib]PV[Aib]IQQ-Valol) | – | – | – | 19.6 ± 0.1 µM | – | 18.5 ± 0.6 µM
8 | CC(=O)N[C@@H](Cc1c[nH]c2ccccc12)C(=O)NCC(=O)N[C@@H](C)C(=O)NC(C)(C)C(=O)NC(C)(C)C(=O)N[C@@H](CCC(N)=O)C(=O)NC(C)(C)C(=O)NC(C)(C)C(=O)NC(C)(C)C(=O)N[C@@H](CO)C(=O)N[C@@H](CC(C)C)C(=O)NC(C)(C)C(=O)N1CCC[C@H]1C(=O)N[C@H](C(=O)NC(C)(C)C(=O)N[C@@H](CC(C)C)C(=O)N[C@@H](CCC(N)=O)C(=O)N[C@@H](CCC(N)=O)C(=O)N[C@H](CO)C(C)C)C(C)C [Compound 2, bukhansantaibol B] (Ac-WGA[Aib][Aib]Q[Aib][Aib][Aib]SL[Aib]PV[Aib]LQQ-Valol) | – | – | – | 13.8 ± 1 µM | – | 11.7 ± 0.8 µM
9 | CC[C@H](C)[C@H](NC(=O)C(C)(C)NC(=O)[C@@H](NC(=O)[C@@H]1CCCN1C(=O)C(C)(C)NC(=O)[C@H](CC(C)C)NC(=O)[C@H](CO)NC(=O)C(C)(C)NC(=O)C(C)(C)NC(=O)C(C)(C)NC(=O)[C@H](CCC(N)=O)NC(=O)C(C)(C)NC(=O)C(C)(C)NC(=O)[C@H](C)NC(=O)CNC(=O)[C@H](Cc1c[nH]c2ccccc12)NC(C)=O)C(C)C)C(=O)N[C@H]1CCC(=O)N[C@H]1O [Compound 7, bukhansantaibol G] (Ac-WGA[Aib][Aib]Q[Aib][Aib][Aib]SL[Aib]PV[Aib]I-X1) | – | – | – | > 50 µM | – | > 50 µM
10 | CC[C@H](C)[C@H](NC(=O)C(C)(C)NC(=O)[C@@H](NC(=O)[C@@H]1CCCN1C(=O)C(C)(C)NC(=O)[C@H](CC(C)C)NC(=O)[C@H](CO)NC(=O)C(C)(C)NC(=O)C(C)(C)NC(=O)C(C)(C)NC(=O)[C@H](CCC(N)=O)NC(=O)C(C)(C)NC(=O)C(C)(C)NC(=O)[C@H](C)NC(=O)CNC(=O)[C@H](Cc1c[nH]c2ccccc12)NC(C)=O)C(C)C)C(=O)N[C@H]1CCC(=O)N[C@H]1OC [Compound 9, bukhansantaibol I] (Ac-WGA[Aib][Aib]Q[Aib][Aib][Aib]SL[Aib]PV[Aib]I-X2) | – | – | marked loss of cytotoxicity | > 50 µM | marked loss of cytotoxicity | > 50 µM
11 | CC[C@H](C)[C@H](NC(=O)C(C)(C)NC(=O)[C@@H](NC(=O)[C@@H]1CCCN1C(=O)C(C)(C)NC(=O)[C@H](CC(C)C)NC(=O)[C@H](CO)NC(=O)C(C)(C)NC(=O)C(C)(C)NC(=O)C(C)(C)NC(=O)[C@H](CCC(N)=O)NC(=O)C(C)(C)NC(=O)C(C)(C)NC(=O)[C@H](C)NC(=O)CNC(=O)[C@H](Cc1ccccc1)NC(C)=O)C(C)C)C(=O)N[C@H]1CCC(=O)N[C@H]1OC [Compound 10, bukhansantaibol J] (Ac-FGA[Aib][Aib]Q[Aib][Aib][Aib]SL[Aib]PV[Aib]I-X2) | – | – | marked loss of cytotoxicity | > 50 µM | marked loss of cytotoxicity | > 50 µM
